Measured values reported in PubChem BioAssay (NCI).
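Cultured in 96-well plates, cells were exposed to test compound for 48 hours across five concentrations. TGI is the concentration that stops growth completely.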

Key:
Test in all cases: NCI tumour cell line growth inhibition, 48 h
SNB-75 CNS = test system: SNB-75 CNS
SK-OV-3 ovarian = test system: SK-OV-3 ovarian
NCI-H23 lung = test system: NCI-H23 lung
TK-10 renal = test system: TK-10 renal
SK-MEL-2 melanoma = test system: SK-MEL-2 melanoma
K-562 leukemia = test system: K-562 leukemia
HCT-15 colon = test system: HCT-15 colon
CAKI-1 renal = test system: CAKI-1 renal
LOX IMVI melanoma = test system: LOX IMVI melanoma
RPMI-8226 leukemia = test system: RPMI-8226 leukemia
SK-MEL-5 melanoma = test system: SK-MEL-5 melanoma
HOP-92 NSCLC = test system: HOP-92 NSCLC

Structure (SMILES)	TGI (SNB-75 CNS) [µM]	TGI (SK-OV-3 ovarian) [µM]	TGI (NCI-H23 lung) [µM]	TGI (TK-10 renal) [µM]	TGI (SK-MEL-2 melanoma) [µM]	TGI (K-562 leukemia) [µM]	TGI (HCT-15 colon) [µM]	TGI (CAKI-1 renal) [µM]	TGI (LOX IMVI melanoma) [µM]	TGI (RPMI-8226 leukemia) [µM]	TGI (SK-MEL-5 melanoma) [µM]	TGI (HOP-92 NSCLC) [µM]
O=C(O)c1c(CC(Cc2ccc3c(c2)CCCC3)C(=O)O)ccc2c1CCCC2 (centres undefined)	> 100	> 100	> 100	> 100	> 100	> 100	> 100	> 100	> 100	> 100	> 100	> 100
O=[N+]([O-])c1ccc(NC2OCC(O)C(O)C2O)cc1 (centres undefined)	> 100	> 100	> 100	> 100	> 100	> 100	> 100	> 100	> 100	> 100	> 100	> 100
NC(=O)N/N=C(\Cc1nc2ccc(C(=O)c3ccccc3)cc2[nH]c1=O)C(=O)Nc1ccc(Br)cc1	> 100	> 100	> 100	> 100	> 100	> 100	> 100	> 100	> 100	> 100	> 100	> 100
N#Cc1c(=O)c2cc([N+](=O)[O-])ccc2n2c1[nH]c1ccccc12	> 100	> 100	> 38.4	> 100	> 69.1	> 23.4	> 61.6	> 92	> 50.4	> 100	28.3	> 39
OC(c1cccs1)c1cc2ccccc2s1 (centres undefined)	> 10	> 10	> 10	> 10	> 10	> 10	> 10	> 10	> 10	> 10	> 10	> 10
Clc1ccc(OCc2nnc3sc(-c4ccc(-c5ccc(Cl)cc5Cl)o4)nn23)c(Cl)c1	34.1	48.3	54	39.8	32.1	62.7	49.9	86.2	36.2	57.2	44.4	37.4
CC(C)(C)c1cc(-c2ccc(-c3cc(C(C)(C)C)c(O)c(C(C)(C)C)c3)cc2)cc(C(C)(C)C)c1O	> 100	> 100	> 100	> 100	> 100	> 100	> 100	> 100	> 100	> 100	> 100	> 100
Oc1ccc2c(c1)OCC(O)(c1ccccc1O)C2 (centres undefined)	> 100	> 100	> 100	> 100	> 100	> 100	> 100	> 100	> 100	> 100	> 100	> 100
O=C(CSc1nnc(Cc2ccccc2)o1)Nc1ccc(Cl)cc1	> 100	> 100	> 100	> 100	> 100	> 100	> 100	> 100	> 100	> 100	> 100	–
Oc1ccc(-c2nc3cc(C(F)(F)F)ccc3n2CC2CCCN3CCCCC23)cc1 (centres undefined)	32.4	27.6	30.4	30.5	27.9	30.3	30.1	38.8	28.8	31.5	27.7	28.5
COc1ccc(C(=O)N2CCN(c3ccc4c(c3)OCC(=O)N4)CC2)cc1	> 100	> 100	> 100	> 100	> 100	–	> 100	> 100	> 100	> 100	> 100	> 100
COC1=CC(=O)C(O)=C(C[C@@]2(C)[C@@H]3CCC[C@H](COC(=O)CCCCCNC(=O)OC(C)(C)C)[C@@]3(C)CC[C@@H]2C)C1=O	> 10	> 10	–	> 10	> 10	> 10	–	> 10	> 10	> 10	> 10	> 10
CCSc1nc2sc(C)c(C)c2c(=O)n1-c1ccc(C(=O)O)cc1	70	> 100	> 100	> 100	> 100	> 100	> 100	> 100	> 100	> 100	> 100	> 100
CCOC(OCC)C(CC)[Se]c1ccccc1[N+](=O)[O-] (centres undefined)	> 100	9.44	> 42.7	> 100	> 90.4	> 38.5	22.2	88.8	37.8	23	30.9	> 61.1
C/C(Cl)=N\OC(=O)Nc1ccccc1C(F)(F)F	> 100	> 100	> 100	28.8	> 100	40.3	> 100	> 100	29.2	45.2	> 100	19
Cc1ccc(C(=O)CC(Cl)=C(Cl)Cl)cc1	> 100	> 100	> 100	> 100	> 100	> 100	> 100	> 100	> 100	74.3	> 100	> 100
COC(=O)NCCc1[nH]nc2c1C(=O)C=C(OC)C2=O	40.2	> 100	44.4	> 100	> 100	37.3	71.6	45.5	33.7	53.9	28.9	37.7
Cc1cccc2sc(NC(=O)c3cc([N+](=O)[O-])ccc3Cl)nc12	> 21.1	> 100	19.9	11.4	> 100	> 100	> 29.1	> 44.8	6.64	> 100	5.32	> 31.2
CCCCCCCCCCCCCCCCCCNc1ccn(C2OC(COP(=O)(O)O)C(O)C2O)c(=O)n1 (centres undefined)	> 100	> 100	> 100	> 100	> 100	> 100	> 100	> 100	> 100	> 100	> 100	> 100
